Data from ChEMBL document CHEMBL1201862, “PubChem BioAssay data set” (2004).
Activity calls are given as the source filed them.

Legend:
Cytochrome P450 2D6 = Cytochrome P450 2D6 (Homo sapiens, UniProt P10635);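 also: CYP2D6 member of a cytochrome P450 panel assay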
Cytochrome P450 1A2 = target: T1, Cytochrome P450 1A2 (Homo sapiens, UniProt P05177);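 also: PubChem cytochrome P450 panel assay, CYP1A2 panel member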
T1 sequence (P05177 whole entry): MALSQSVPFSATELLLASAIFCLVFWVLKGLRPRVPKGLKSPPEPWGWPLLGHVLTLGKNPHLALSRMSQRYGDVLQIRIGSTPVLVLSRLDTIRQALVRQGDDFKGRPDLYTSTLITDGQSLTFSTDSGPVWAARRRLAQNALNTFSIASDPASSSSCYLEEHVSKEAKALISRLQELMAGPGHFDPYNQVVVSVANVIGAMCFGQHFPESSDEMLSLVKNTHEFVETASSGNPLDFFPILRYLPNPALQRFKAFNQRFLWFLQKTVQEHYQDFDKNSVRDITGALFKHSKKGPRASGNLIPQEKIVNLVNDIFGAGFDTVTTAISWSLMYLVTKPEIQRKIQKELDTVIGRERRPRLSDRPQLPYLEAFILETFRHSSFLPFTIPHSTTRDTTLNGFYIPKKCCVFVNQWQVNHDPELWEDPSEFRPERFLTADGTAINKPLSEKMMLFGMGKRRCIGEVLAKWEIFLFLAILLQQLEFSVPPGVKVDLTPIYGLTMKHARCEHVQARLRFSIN

INS1 = test: beta cell apoptosis inhibitors, cytokine rescue, dose response, luminescence, retest (AID 449756); assay type: functional, cell-based; conditions: Rattus norvegicus;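 also: cell death triggered by IL-1 beta plus TNF-alpha plus IFN-gamma mixture; protective hits raise ATP signal compared with cytokine alone wells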
Cytochrome P450 3A4 = Cytochrome P450 3A4 (Homo sapiens, UniProt P08684);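 also: CYP3A4 tested as one member of a cytochrome P450 panel screen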
Chain of Cytochrome P450 3A4 (P08684 whole entry): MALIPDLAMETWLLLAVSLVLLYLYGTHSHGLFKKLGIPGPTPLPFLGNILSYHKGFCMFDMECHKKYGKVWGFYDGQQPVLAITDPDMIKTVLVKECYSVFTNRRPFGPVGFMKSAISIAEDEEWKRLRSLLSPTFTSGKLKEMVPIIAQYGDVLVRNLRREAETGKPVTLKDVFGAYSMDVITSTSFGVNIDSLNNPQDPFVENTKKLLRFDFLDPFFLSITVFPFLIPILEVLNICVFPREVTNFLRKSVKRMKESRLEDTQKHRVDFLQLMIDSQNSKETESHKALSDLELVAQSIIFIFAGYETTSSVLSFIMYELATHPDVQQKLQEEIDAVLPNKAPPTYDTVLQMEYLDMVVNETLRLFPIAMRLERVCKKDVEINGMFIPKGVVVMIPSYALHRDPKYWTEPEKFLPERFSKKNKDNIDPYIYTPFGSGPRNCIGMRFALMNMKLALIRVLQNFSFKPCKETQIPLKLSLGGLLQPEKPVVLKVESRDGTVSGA

[1] = microbe, parasite or virus in culture; assay type: functional; conditions: Mycobacterium tuberculosis
Streptococcus = test: Group A Streptococcus viability loss, dose response, counter-screen for streptokinase expression inhibitor project, luminescence, BacTiterGlo (AID 1915); assay type: functional, organism-based;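 also: potency for reduction of bacterial viability or growth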
Streptokinase A = target: T2, Streptokinase A (Streptococcus pyogenes serotype M1, UniProt P10520); test: S. pyogenes streptokinase expression inhibitors, potency, dose response, plasminogen activation absorbance, OD405 (AID 1914); assay type: functional, Streptococcus pyogenes M1 GAS;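 also: secreted streptokinase activity via plasminogen activation per viability signal from cell pellet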
T2 sequence (P10520 whole entry): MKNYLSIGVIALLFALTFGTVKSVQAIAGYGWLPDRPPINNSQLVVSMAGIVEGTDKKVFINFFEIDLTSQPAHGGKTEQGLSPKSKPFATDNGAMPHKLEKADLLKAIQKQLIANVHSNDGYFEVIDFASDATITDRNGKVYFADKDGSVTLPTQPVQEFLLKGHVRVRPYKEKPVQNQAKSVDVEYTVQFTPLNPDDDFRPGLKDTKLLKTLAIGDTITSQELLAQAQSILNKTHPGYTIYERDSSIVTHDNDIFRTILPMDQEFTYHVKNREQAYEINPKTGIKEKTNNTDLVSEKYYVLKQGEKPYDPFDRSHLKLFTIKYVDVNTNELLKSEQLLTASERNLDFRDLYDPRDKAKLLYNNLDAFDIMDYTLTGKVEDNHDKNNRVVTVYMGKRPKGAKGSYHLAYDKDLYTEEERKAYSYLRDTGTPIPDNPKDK

[2] = system: Streptococcus sp. 'group A'; test: growth inhibition of control SK(-) GAS strain, dose response, counter-screen for streptokinase expression inhibitor project, luminescence, kanamycin, BacTiterGlo, confirmation (AID 1900); assay type: functional, organism-based
Protein RecA = target: T3, Protein RecA (Mycobacterium tuberculosis, UniProt P9WHJ3); test: Fluorescence Cell-Free Homogeneous Dose Retest to Identify Inhibitors of RecA-Intein Splicing Activity. [Related pubchem assays (depositor defined):AID2097, AID2223, AID489010, AID492950]; assay type: functional
T3 sequence (P9WHJ3 whole entry): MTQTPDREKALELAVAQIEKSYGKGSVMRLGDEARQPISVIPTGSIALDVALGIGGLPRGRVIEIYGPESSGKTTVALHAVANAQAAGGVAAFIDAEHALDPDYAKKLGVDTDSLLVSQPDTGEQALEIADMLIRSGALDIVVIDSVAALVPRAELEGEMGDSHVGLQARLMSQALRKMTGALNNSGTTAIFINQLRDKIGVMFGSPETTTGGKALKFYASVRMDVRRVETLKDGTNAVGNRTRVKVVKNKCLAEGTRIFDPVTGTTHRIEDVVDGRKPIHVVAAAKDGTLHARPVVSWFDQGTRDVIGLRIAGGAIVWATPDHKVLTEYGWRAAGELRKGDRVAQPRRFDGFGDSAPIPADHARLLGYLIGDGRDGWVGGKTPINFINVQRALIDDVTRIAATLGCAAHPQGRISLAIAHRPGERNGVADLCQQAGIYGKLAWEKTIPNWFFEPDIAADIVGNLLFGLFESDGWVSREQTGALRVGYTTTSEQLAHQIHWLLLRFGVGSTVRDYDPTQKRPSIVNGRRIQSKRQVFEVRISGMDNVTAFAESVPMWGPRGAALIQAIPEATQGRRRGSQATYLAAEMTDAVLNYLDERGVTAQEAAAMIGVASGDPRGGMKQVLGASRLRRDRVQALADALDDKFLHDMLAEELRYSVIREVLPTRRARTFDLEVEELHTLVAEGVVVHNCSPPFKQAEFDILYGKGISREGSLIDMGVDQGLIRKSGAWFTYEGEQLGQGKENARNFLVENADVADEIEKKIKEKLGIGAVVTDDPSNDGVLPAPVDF

[3] = target: T4, Heat shock factor protein 1 (Mus musculus, UniProt P38532); test: HSF1 potentiators in luciferase reporter cells, confirmation, cell-based, NIH3T3, luminescence, dose retest (AID 435004); assay type: functional;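 also: stress induced by proteasome inhibitor MG132 added 30 min after compound; luciferase reporter driven by HSF1 response element in NIH3T3 cells; actives raise luminescence as potentiators of the MG132 stress response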
T4 sequence (P38532 whole entry): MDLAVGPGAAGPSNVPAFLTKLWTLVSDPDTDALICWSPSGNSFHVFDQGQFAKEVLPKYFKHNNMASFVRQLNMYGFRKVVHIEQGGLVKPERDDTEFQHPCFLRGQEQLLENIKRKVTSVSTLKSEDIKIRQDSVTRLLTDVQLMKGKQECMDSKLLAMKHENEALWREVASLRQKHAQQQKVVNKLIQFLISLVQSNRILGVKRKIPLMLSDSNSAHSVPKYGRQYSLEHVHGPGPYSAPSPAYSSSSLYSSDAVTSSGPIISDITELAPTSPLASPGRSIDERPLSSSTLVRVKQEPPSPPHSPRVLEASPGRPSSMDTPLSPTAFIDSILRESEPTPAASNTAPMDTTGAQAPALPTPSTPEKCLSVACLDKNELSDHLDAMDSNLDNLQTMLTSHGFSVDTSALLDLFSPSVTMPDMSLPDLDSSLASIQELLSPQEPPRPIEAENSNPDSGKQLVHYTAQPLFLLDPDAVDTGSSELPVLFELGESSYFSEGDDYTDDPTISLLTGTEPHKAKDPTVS

[4] = target: T5, Replicative DNA helicase DnaB (Mycobacterium tuberculosis, UniProt P9WMR3); test: DnaB intein splicing inhibitors, dose response, biochemical, cell-free fluorescence (AID 449749); assay type: functional
T5 sequence (P9WMR3 whole entry): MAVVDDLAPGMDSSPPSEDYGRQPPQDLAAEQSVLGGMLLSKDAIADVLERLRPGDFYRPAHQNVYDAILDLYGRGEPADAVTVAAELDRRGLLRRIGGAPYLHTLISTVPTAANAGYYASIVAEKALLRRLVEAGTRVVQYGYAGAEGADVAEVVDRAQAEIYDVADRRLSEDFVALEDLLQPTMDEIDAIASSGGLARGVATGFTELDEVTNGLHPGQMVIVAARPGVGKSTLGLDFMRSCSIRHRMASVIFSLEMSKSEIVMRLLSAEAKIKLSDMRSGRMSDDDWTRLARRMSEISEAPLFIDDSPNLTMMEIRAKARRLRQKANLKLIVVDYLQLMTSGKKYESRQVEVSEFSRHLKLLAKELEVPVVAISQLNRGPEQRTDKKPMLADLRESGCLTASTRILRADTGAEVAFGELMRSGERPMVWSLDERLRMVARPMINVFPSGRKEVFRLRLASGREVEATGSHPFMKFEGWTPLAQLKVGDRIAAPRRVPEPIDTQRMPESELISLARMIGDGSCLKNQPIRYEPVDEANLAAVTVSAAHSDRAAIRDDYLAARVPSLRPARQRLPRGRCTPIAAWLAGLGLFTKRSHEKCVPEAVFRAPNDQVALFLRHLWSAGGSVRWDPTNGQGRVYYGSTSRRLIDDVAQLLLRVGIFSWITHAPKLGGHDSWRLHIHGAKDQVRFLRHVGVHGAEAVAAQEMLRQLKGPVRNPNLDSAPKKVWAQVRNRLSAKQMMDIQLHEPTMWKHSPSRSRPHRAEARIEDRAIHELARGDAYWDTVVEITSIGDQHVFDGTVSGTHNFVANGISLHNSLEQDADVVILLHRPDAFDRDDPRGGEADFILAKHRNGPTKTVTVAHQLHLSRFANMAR

[5] = P. falciparum Dd2 growth inhibitors, dose response, SYBR Green, cherry-picked samples (AID 1159567); assay type: functional, cell-based
[6] = cytotoxicity toward NIH3T3 fibroblasts, dose response, counter-screen, cell-based, ATP luminescence, mouse fibroblasts (AID 2010); assay type: functional;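 also: cells exposed to compound for about 90 hours before reading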
[7] = inhibitors of intracellular T. cruzi replication, confirmation, NIH3T3 host cells, beta-gal luminescence (AID 2044); assay type: functional, cell-based;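 also: intracellular parasites grown in NIH/3T3 mouse fibroblasts as host cells; luminescent beta-galactosidase reporter signal from transgenic T. cruzi replicating inside host cells; inhibitors lower the luminescence signal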
[8] = target: T6, Rac GTPase-activating protein 1 (Homo sapiens, UniProt Q9H0H5); test: MgcRacGAP GTPase-activating activity inhibitors, confirmation, biochemical, ADP Hunter fluorescence, primary and confirmatory (AID 624330); assay type: functional
T6 sequence (Q9H0H5 whole entry): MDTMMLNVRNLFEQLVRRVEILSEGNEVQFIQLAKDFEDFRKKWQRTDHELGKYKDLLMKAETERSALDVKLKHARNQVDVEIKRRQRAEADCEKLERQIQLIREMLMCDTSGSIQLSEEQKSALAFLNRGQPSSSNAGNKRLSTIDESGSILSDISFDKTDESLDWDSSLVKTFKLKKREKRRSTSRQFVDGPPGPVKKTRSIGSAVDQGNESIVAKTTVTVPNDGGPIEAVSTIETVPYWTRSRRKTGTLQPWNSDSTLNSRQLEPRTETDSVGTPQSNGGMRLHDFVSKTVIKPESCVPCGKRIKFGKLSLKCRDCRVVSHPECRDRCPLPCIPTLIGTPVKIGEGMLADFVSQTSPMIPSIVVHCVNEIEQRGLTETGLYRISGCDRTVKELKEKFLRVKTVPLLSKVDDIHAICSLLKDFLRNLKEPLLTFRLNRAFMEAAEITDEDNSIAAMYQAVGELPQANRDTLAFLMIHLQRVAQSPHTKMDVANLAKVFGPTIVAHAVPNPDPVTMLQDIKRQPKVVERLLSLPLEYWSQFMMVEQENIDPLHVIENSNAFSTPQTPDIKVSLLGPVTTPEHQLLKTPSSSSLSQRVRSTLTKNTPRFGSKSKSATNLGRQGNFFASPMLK

Chain of Cytochrome P450 2D6 (P10635 whole entry): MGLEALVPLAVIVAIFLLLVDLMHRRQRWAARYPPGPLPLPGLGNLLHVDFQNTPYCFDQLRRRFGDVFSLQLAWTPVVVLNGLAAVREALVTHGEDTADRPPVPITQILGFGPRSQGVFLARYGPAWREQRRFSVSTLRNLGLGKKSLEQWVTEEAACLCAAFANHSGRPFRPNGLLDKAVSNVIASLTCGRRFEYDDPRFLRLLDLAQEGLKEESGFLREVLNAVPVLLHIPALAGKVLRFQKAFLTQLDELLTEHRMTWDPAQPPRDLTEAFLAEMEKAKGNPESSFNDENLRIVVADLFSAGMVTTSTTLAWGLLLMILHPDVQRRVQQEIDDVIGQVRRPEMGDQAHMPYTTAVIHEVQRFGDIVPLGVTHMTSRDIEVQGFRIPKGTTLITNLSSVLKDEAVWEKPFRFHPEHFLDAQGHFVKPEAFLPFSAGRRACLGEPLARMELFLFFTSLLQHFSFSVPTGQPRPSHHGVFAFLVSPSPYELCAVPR

## CCCCCCCCSc1nnc(CSc2nc3nc(C)cc(C)n3n2)o1
Cytochrome P450 2D6
  AC50: 28.2 µM (inconclusive)
Cytochrome P450 1A2
  AC50: 31.6 µM (inconclusive)
INS1
  AC50: 14.9 µM (active)
Cytochrome P450 3A4
  AC50: 35.5 µM (inconclusive)

## C/C(=N/Nc1nc(-c2ccccc2)cc(-c2ccc(F)cc2)n1)c1cccc(N)c1
INS1
  AC50: 3.64 µM (active)

## O=C1N=C(Nc2ccccc2)S/C1=C\C=C\c1ccco1
[1]
  CC50: 39.3 µM (active)

## CC12CCC(C(=O)Nc3cccc(Cl)c3Cl)([C@H](Br)C1=O)C2(C)C (some centres not stated)
Streptococcus
  EC50: > 150 µM (not active)
Streptokinase A
  EC50: > 150 µM (not active)
[2]
  EC50: > 150 µM (not active)

## CCOC(=O)c1nnc(-c2ccccc2)nc1Sc1ccccc1Cl
Protein RecA
  EC50: 0.686 µM (active)
[3]
  EC50: 8.48 µM (active)
[1]
  CC50: > 40 µM (active)
[4]
  AC50: 2.36 µM (active)

## CCC(=O)Nc1ccc2c(c1)OC[C@H](C)N(Cc1ccccn1)C[C@H](C)[C@H](OC)CN(C)C2=O
[5]
  AC50: 15.3 µM (active)

## CCn1c2ccccc2c2cc(CN3CCN(Cc4cc(OC)ccc4O)CC3)ccc21
[6]
  EC50: > 60 µM (not active)
[1]
  CC50: > 40 µM (active)
[7]
  EC50: 1.21 µM (active)

## O=[N+]([O-])c1cc(Cl)c(O)c(-[n+]2c(-c3ccccc3)cc(-c3ccccc3)cc2-c2ccccc2)c1.[O-][Cl+3]([O-])([O-])[O-]
[1]
  CC50: > 40 µM (active)

## CC1(C)S[C@@H]2[C@H](NC(=O)COc3ccccc3)C(=O)N2C1C(=O)OCc1cc2ccccc2n1S(=O)(=O)c1ccccc1 (some centres not stated)
Streptococcus
  EC50: 39.9 µM (active)
Streptokinase A
  EC50: 23.6 µM (active)
[2]
  EC50: 6.32 µM (active)

## COc1ccc(NC2CCCN(C(=O)c3cc(C)nc4cc(F)ccc34)C2)cc1 (configuration not stated)
[8]
  IC50: 120 µM (active)
